In PubChem BioAssay AID330 (DTP/NCI, 2004):
“And” between values parts separate entries of the source, which are not always exact repeats. Equal values may be shown once. Inconclusive results and toxic doses are left out. The calls were made as follows: active = survival T/C of 150% or more; inactive = T/C below 125% in these data.

System: P388 leukemia ip, CD2F1 mice, survival T/C
Assay: NCI In Vivo Anticancer Drug Screen. Data for tumor model P388 Leukemia (intraperitoneal) in CD2F1 (CDF1) mice
Conditions: endpoint: median survival time, higher = longer survival
Procedure, shortened: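 Mice carrying the transplanted tumor received test compound or vehicle. Survival was recorded in each group, and the value is the treated-group measurement divided by that of the vehicle-treated control group.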

[1] = dose: 100.0 mg/kg/injection, schedule: Q01DX009 (ip), vehicle: Klucel (hydroxypropylcellulose) (HPC)
[2] = dose: 200.0 mg/kg/injection, schedule: Q01DX009 (ip), vehicle: Klucel (hydroxypropylcellulose) (HPC)
[3] = dose: 50.0 mg/kg/injection, schedule: Q01DX009 (ip), vehicle: saline with Tween-80
[4] = dose: 100.0 mg/kg/injection, schedule: Q01DX009 (ip), vehicle: saline with Tween-80
[5] = dose: 200.0 mg/kg/injection, schedule: Q01DX009 (ip), vehicle: saline with Tween-80
[6] = dose: 50.0 mg/kg/injection, schedule: Q01DX005 (ip), vehicle: saline with Tween-80
[7] = dose: 100.0 mg/kg/injection, schedule: Q01DX005 (ip), vehicle: saline with Tween-80
[8] = dose: 6.25 mg/kg/injection, schedule: Q01DX009 (ip), vehicle: Klucel (hydroxypropylcellulose) (HPC)
[9] = dose: 12.5 mg/kg/injection, schedule: Q01DX009 (ip), vehicle: Klucel (hydroxypropylcellulose) (HPC)
[10] = dose: 25.0 mg/kg/injection, schedule: Q01DX009 (ip), vehicle: Klucel (hydroxypropylcellulose) (HPC)
[11] = dose: 60.0 mg/kg/injection, schedule: Q01DX005 (ip), vehicle: saline with Tween-80
[12] = dose: 120.0 mg/kg/injection, schedule: Q01DX005 (ip), vehicle: saline with Tween-80
[13] = dose: 240.0 mg/kg/injection, schedule: Q01DX005 (ip), vehicle: saline with Tween-80
[14] = dose: 50.0 mg/kg/injection, schedule: Q01DX009 (ip), vehicle: Klucel (hydroxypropylcellulose) (HPC)
[15] = dose: 12.5 mg/kg/injection, schedule: Q01DX009 (ip), vehicle: saline with Tween-80
[16] = dose: 25.0 mg/kg/injection, schedule: Q01DX009 (ip), vehicle: saline with Tween-80

Measured: T/C

O=C1Nc2ccc(Cl)cc2C(c2ccccc2Cl)=NC1O (centres undefined)
inactive: [1] 102 % of control | [2] 96 % of control

ClC1=C(Cl)C2(Cl)C3C(c4ccc(I)cc4C4C3C3(Cl)C(Cl)=C(Cl)C4(Cl)C3(Cl)Cl)C1(Cl)C2(Cl)Cl (centres undefined)
inactive: dose: 50.0 mg/kg/injection, schedule: Q01DX009 (ip), vehicle: saline 105 % of control | dose: 100.0 mg/kg/injection, schedule: Q01DX009 (ip), vehicle: saline 108 % of control | dose: 200.0 mg/kg/injection, schedule: Q01DX009 (ip), vehicle: saline 105 % of control

O=CC1(c2ccco2)SCCCS1
inactive: [3] 106 % of control | [4] 104 % of control | [5] 104 % of control

C=CCOc1cc2c(cc1C(C)c1ccc(OCC)c(C)c1)OCO2 (centres undefined)
inactive: [6] 106 % of control | [7] 103 % of control | dose: 200.0 mg/kg/injection, schedule: Q01DX005 (ip), vehicle: saline with Tween-80 106 % of control

O=[N+]([O-])c1ccc(Oc2ccccc2[N+](=O)[O-])nc1
inactive: [8] 106 % of control | [9] 105 % of control | [10] 103 % of control

Cc1cc([N+](=O)[O-])ccc1N=Nc1ccc(O)c(C(=O)O)c1
inactive: [6] 105 % of control | [7] 95 % of control

O=c1[nH]nc(NC2Nc3ccccc3N2)c2ccccc12
inactive: [11] 97 % of control | [12] 96 % of control | [13] 96 % of control

O=C1/C(=C/c2ccccc2[N+](=O)[O-])Cc2ccccc21
inactive: [3] 103 % of control | [4] 94 % of control | [5] 103 % of control | dose: 400.0 mg/kg/injection, schedule: Q01DX009 (ip), vehicle: saline with Tween-80 97 % of control

COc1ccc(C/C=N/O)c(OC)c1
inactive: dose: 12.5 mg/kg/injection, schedule: Q01DX009 (ip), vehicle: other 91 % of control | dose: 25.0 mg/kg/injection, schedule: Q01DX009 (ip), vehicle: other 89 % of control | dose: 100.0 mg/kg/injection, schedule: Q01DX009 (ip), vehicle: other 93 % of control

c1ccc2c(c1)ccc1c3ccccc3ncc21
inactive: dose: 12.5 mg/kg/injection, schedule: Q04DX003 (ip), vehicle: distilled water + Tween-80 107 % of control | dose: 25.0 mg/kg/injection, schedule: Q04DX003 (ip), vehicle: distilled water + Tween-80 96 % of control | dose: 50.0 mg/kg/injection, schedule: Q04DX003 (ip), vehicle: distilled water + Tween-80 98 % of control | dose: 100.0 mg/kg/injection, schedule: Q04DX003 (ip), vehicle: distilled water + Tween-80 102 % of control | dose: 200.0 mg/kg/injection, schedule: Q04DX003 (ip), vehicle: distilled water + Tween-80 102 % of control | dose: 400.0 mg/kg/injection, schedule: Q04DX003 (ip), vehicle: distilled water + Tween-80 98 % of control

CC(=O)N(c1ccccc1)[Si](C)(C)C
inactive: dose: 100.0 mg/kg/injection, schedule: Q01DX001 (ip), vehicle: saline with Tween-80 107 % of control | dose: 200.0 mg/kg/injection, schedule: Q01DX001 (ip), vehicle: saline with Tween-80 106 % of control | dose: 400.0 mg/kg/injection, schedule: Q01DX001 (ip), vehicle: saline with Tween-80 100 % of control

CC1(O)c2ccccc2-c2nc3ccccc3nc21 (centres undefined)
inactive: dose: 100.0 mg/kg/injection, schedule: Q04DX003 (ip), vehicle: saline sonified 110 % of control | dose: 200.0 mg/kg/injection, schedule: Q04DX003 (ip), vehicle: saline sonified 110 % of control | dose: 400.0 mg/kg/injection, schedule: Q04DX003 (ip), vehicle: saline sonified 100 % of control

CC(C)=NNS(=O)(=O)c1ccccc1
inactive: [8] 108 % of control | [9] 110 % of control | [10] 100 % of control | [14] 110 % of control | [1] 108 % of control

N#CN.[Pb]
inactive: dose: 25.0 mg/kg/injection, schedule: Q01DX005 (ip), vehicle: Klucel (hydroxypropylcellulose) (HPC) 115 % of control and 94 % of control | dose: 50.0 mg/kg/injection, schedule: Q01DX005 (ip), vehicle: Klucel (hydroxypropylcellulose) (HPC) 101 % of control (2×) and 104 % of control | dose: 100.0 mg/kg/injection, schedule: Q01DX005 (ip), vehicle: Klucel (hydroxypropylcellulose) (HPC) 107 % of control and 109 % of control and 110 % of control | dose: 200.0 mg/kg/injection, schedule: Q01DX005 (ip), vehicle: Klucel (hydroxypropylcellulose) (HPC) 111 % of control

Cc1cc(OCCS(=O)(=O)C(CCOS(C)(=O)=O)COS(C)(=O)=O)cc(C)c1Cl (centres undefined)
inactive: [14] 105 % of control | [1] 102 % of control | [2] 101 % of control

CC(C)[C@]12O[C@H]1[C@@H]1O[C@]13[C@]1(O[C@H]1C[C@H]1C4=C(CC[C@@]13C)C(=O)OC4)[C@@H]2O
inactive: dose: 62.5 micrograms/kg/injection, schedule: Q01DX009 (ip), vehicle: saline with Tween-80 95 % of control | dose: 125.0 micrograms/kg/injection, schedule: Q01DX009 (ip), vehicle: saline with Tween-80 95 % of control | dose: 250.0 micrograms/kg/injection, schedule: Q01DX009 (ip), vehicle: saline with Tween-80 112 % of control

CCN(CC)c1ccc(N=Nc2nc(Cl)c(/C=C3\C(=O)c4ccccc4C3=C(C#N)C#N)s2)c(NC(C)=O)c1
inactive: [11] 96 % of control | [12] 97 % of control | [13] 95 % of control

c1cc2cc3c(cc2cc1CC1NCCc2cc4c(cc21)OCO4)OCO3 (centres undefined)
inactive: [9] 100 % of control | [10] 91 % of control | [14] 107 % of control | [1] 91 % of control

Fc1ccc(OCCC(Cn2ccnc2)c2ccc(Cl)cc2Cl)cc1 (centres undefined)
inactive: [15] 106 % of control | [16] 106 % of control | [3] 88 % of control and 94 % of control

N#CC(N)(C#N)C(N)=O
inactive: dose: 100.0 mg/kg/injection, schedule: Q01DX001 (ip), vehicle: saline 101 % of control | dose: 200.0 mg/kg/injection, schedule: Q01DX001 (ip), vehicle: saline 101 % of control | dose: 400.0 mg/kg/injection, schedule: Q01DX001 (ip), vehicle: saline 103 % of control

COC1=CC(=O)C(C2OC(=O)C(Cl)=C2Cl)=CC1=O (centres undefined)
inactive: [6] 114 % of control | [7] 119 % of control

CCCCOB(OCCCC)C(C)C(C#N)C#N (centres undefined)
inactive: dose: 50.0 mg/kg/injection, schedule: Q04DX003 (ip), vehicle: saline 92 % of control | dose: 100.0 mg/kg/injection, schedule: Q04DX003 (ip), vehicle: saline 92 % of control | dose: 200.0 mg/kg/injection, schedule: Q04DX003 (ip), vehicle: saline 96 % of control

O=C1NC(=O)C2C1C1C3OC3C2C2C3C(=O)NC(=O)C3C12 (centres undefined)
inactive: dose: 6.25 mg/kg/injection, schedule: Q01DX009 (ip), vehicle: saline with Tween-80 102 % of control | [15] 116 % of control | [16] 110 % of control
active: [4] 168 % of control

C/C=C1\NC(=O)c2csc(n2)C(C(C)C)NC(=O)c2csc(n2)/C(=C/C)NC(=O)C(C(C)O)NC(=O)c2csc(n2)-c2ccc(-c3nc(-c4nc(C(=O)NC(C(=O)NCC(C)O)C(C)O)cs4)cs3)nc2-c2csc1n2 (centres undefined)
inactive: dose: 0.25 mg/kg/injection, schedule: Q01DX009 (ip), vehicle: Klucel (hydroxypropylcellulose) (HPC) 107 % of control | dose: 0.5 mg/kg/injection, schedule: Q01DX009 (ip), vehicle: Klucel (hydroxypropylcellulose) (HPC) 112 % of control | dose: 1.0 mg/kg/injection, schedule: Q01DX009 (ip), vehicle: Klucel (hydroxypropylcellulose) (HPC) 104 % of control | dose: 2.0 mg/kg/injection, schedule: Q01DX009 (ip), vehicle: Klucel (hydroxypropylcellulose) (HPC) 103 % of control
